For the assay, the target named is T1, BTK (Homo sapiens, UniProt Q06187).
T1 construct: The GM01501.3 cell line endogenously expresses BTK with a HiBiT fusion tag via CRISPR knock-in at its C-terminal region; endogenous in cells; host or cells: GM01501.3 (GM01501 cells engineered by CRISPR knock-in of HiBiT at the BTK locus)
The assay can be described thus: BTK degradation assay using the HiBiT Method (Nano-Glo HiBiT Lytic Assay, GM01501.3 cells). In kind it is cell-based. Conditions: HiBiT Degradation on GM01501.3 BTK @ 6 hours. In a few lines: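 CRISPR knock-in GM01501.3 cells expressing endogenous BTK with C-terminal HiBiT tag, treated 6 h at 37 °C with compounds, 11-point half-log titration from 10 μM top, duplicates. Remaining BTK quantified by Nano-Glo HiBiT lytic luminescence versus DMSO controls; DC50 reported.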

T1 sequence (Q06187 whole entry, the tested form may be a part): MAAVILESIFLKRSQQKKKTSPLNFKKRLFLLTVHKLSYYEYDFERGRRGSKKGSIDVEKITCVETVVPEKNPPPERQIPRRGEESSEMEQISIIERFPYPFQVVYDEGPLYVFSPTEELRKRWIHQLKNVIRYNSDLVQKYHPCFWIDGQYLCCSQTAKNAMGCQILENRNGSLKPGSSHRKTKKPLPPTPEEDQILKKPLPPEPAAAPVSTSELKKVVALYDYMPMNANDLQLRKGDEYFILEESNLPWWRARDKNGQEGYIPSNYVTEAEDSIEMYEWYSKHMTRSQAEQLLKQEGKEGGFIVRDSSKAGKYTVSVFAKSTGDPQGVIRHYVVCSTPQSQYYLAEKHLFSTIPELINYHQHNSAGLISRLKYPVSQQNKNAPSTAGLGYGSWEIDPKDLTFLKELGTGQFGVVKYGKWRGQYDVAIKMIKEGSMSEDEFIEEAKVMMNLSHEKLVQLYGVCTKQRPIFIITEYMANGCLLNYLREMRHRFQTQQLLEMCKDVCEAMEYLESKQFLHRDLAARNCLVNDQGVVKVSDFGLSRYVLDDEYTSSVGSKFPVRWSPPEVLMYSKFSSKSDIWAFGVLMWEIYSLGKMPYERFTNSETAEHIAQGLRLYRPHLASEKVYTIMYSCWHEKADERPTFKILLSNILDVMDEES

On to `Cc1cc(-c2ncnn3cc(-c4ccc(CN5CCC(c6ccc(NC7CCC(=O)NC7=O)cc6)CC5)cc4)cc23)ccc1CNC(=O)c1ccc(C(F)(F)F)cn1` (stereo not drawn) [Example 88, N-[[4-[6-[4-[[4-[4-[(2,6-dioxo-3-piperidyl)amino]phenyl]-1-piperidyl]methyl]phenyl]pyrrolo[2,1-f][1,2,4]triazin-4-yl]-2-methyl-phenyl]methyl]-5-(trifluoromethyl)pyridine-2-carboxamide], for which the DC50 is under 100 nM.
Regarding `Cc1cc(-c2ncnn3cc(-c4ccc(CN5CCC(c6ccc(NC7CCC(=O)NC7=O)cc6)CC5)cc4)cc23)ccc1CNC(=O)c1ncc(C(C)(C)C)o1` (stereo not drawn) [Example 86, 5-tert-butyl-N-[[4-[6-[4-[[4-[4-[(2,6-dioxo-3-piperidyl)amino]phenyl]-1-piperidyl]methyl]phenyl]pyrrolo[2,1-f][1,2,4]triazin-4-yl]-2-methyl-phenyl]methyl]oxazole-2-carboxamide], the DC50 is under 100 nM.
The value for `Cc1cc(-c2ncnn3cc(-c4ccc(CN5CCN(c6ccc(NC7CCC(=O)NC7=O)cc6)CC5)cc4)cc23)ccc1CNC(=O)c1noc(C(C)(C)C)n1` (stereo not drawn) [Example 29, 5-tert-butyl-N-[[4-[6-[4-[[4-[4-[(2,6-dioxo-3-piperidyl)amino]phenyl]piperazin-1-yl]methyl]phenyl]pyrrolo[2,1-f][1,2,4]triazin-4-yl]-2-methyl-phenyl]methyl]-1,2,4-oxadiazole-3-carboxamide] was under 100 nM; that for `Cc1cc(-c2ncnn3cc(-c4cnn(CCN5CCC(c6ccc7c(C8CCC(=O)NC8=O)nn(C)c7c6)CC5)c4)cc23)ccc1CNC(=O)c1noc(C(C)(C)C)n1` (stereo not drawn) [Example 299, 5-(tert-butyl)-N-(4-(6-(1-(2-(4-(3-(2,6-dioxopiperidin-3-yl)-1-methyl-1H-indazol-6-yl)piperidin-1-yl)ethyl)-1H-pyrazol-4-yl)pyrrolo[2,1-f][1,2,4]triazin-4-yl)-2-methylbenzyl)-1,2,4-oxadiazole-3-carboxamide] was under 100 nM; that for `Cc1cc(-c2ncnn3cc(-c4ccc(CN5CCC(c6ccc(NC7CCC(=O)NC7=O)cc6)CC5)cc4)cc23)ccc1CNC(=O)c1ncc(C(C)C)cc1F` (stereo not drawn) [Example 76, N-[[4-[6-[4-[[4-[4-[(2,6-dioxo-3-piperidyl)amino]phenyl]-1-piperidyl]methyl]phenyl]pyrrolo[2,1-f][1,2,4]triazin-4-yl]-2-methyl-phenyl]methyl]-3-fluoro-5-isopropyl-pyridine-2-carboxamide] was under 100 nM.
The value for `Cc1cc(-c2ncnn3cc(CCN4CCC(c5ccc6c(N7CCC(=O)NC7=O)nn(C)c6c5F)CC4)cc23)ccc1CNC(=O)c1noc(C(C)(C)C)n1` [Example 259, 5-(tert-butyl)-N-(4-(6-(2-(4-(3-(2,4-dioxotetrahydropyrimidin-1(2H)-yl)-7-fluoro-1-methyl-1H-indazol-6-yl)piperidin-1-yl)ethyl)pyrrolo[2,1-f][1,2,4]triazin-4-yl)-2-methylbenzyl)-1,2,4-oxadiazole-3-carboxamide] was under 100 nM; that for `Cc1cc(-c2ncnn3cc(-c4ccc(CN5CCOC(c6ccc(NC7CCC(=O)NC7=O)cc6)C5)cc4)cc23)ccc1CNC(=O)c1noc(C(C)(C)C)n1` (stereo not drawn) [Example 200, 5-(tert-butyl)-N-(4-(6-(4-((2-(4-((2,6-dioxopiperidin-3-yl)amino)phenyl)morpholino)methyl)phenyl)pyrrolo[2,1-f][1,2,4]triazin-4-yl)-2-methylbenzyl)-1,2,4-oxadiazole-3-carboxamide] was under 100 nM.
The value for `CC(C)(C)c1nc(C(=O)NCc2ccc(-c3ncnn4cc(CCCCN5CCN(c6ccc(NC7CCC(=O)NC7=O)cn6)CC5)cc34)cc2F)no1` (stereo not drawn) [Example 139, 5-tert-butyl-N-[[4-[6-[4-[4-[5-[(2,6-dioxo-3-piperidyl)amino]-2-pyridyl]piperazin-1-yl]butyl]pyrrolo[2,1-f][1,2,4]triazin-4-yl]-2-fluoro-phenyl]methyl]-1,2,4-oxadiazole-3-carboxamide] was under 100 nM; that for `CC(C)(C)c1nc(C(=O)NCc2ccc(-c3ncnn4cc(-c5ccc(OCCN6CCC(c7ccc(C8(C)CCC(=O)NC8=O)cc7)CC6)cc5)cc34)cc2F)no1` (stereo not drawn) [Example 111, 5-tert-butyl-N-[[2-fluoro-4-[6-[4-[2-[4-[4-(3-methyl-2,6-dioxo-3-piperidyl)phenyl]-1-piperidyl]ethoxy]phenyl]pyrrolo[2,1-f][1,2,4]triazin-4-yl]phenyl]methyl]-1,2,4-oxadiazole-3-carboxamide] was under 100 nM; that for `Cc1cc(-c2ncnn3cc(N4CCN(C(=O)CCCCCCCCNC(=O)c5ccc(OC6CCC(=O)NC6=O)cc5)CC4)cc23)ccc1CNC(=O)c1noc(C(C)(C)C)n1` (stereo not drawn) [Example 180, 5-(tert-butyl)-N-(4-(6-(4-(9-(4-((2,6-dioxopiperidin-3-yl)oxy)benzamido)nonanoyl)piperazin-1-yl)pyrrolo[2,1-f][1,2,4]triazin-4-yl)-2-methylbenzyl)-1,2,4-oxadiazole-3-carboxamide] was under 100 nM.
`CC(C)(C)c1nc(C(=O)NCc2ccc(-c3ncnn4cc(-c5ccc(CN6CCC(c7ccc(C8CCC(=O)NC8=O)cc7)CC6)cc5)cc34)cc2Cl)no1` (stereo not drawn) [Example 46, 5-tert-butyl-N-[[2-chloro-4-[6-[4-[[4-[4-(2,6-dioxo-3-piperidyl)phenyl]-1-piperidyl]methyl]phenyl]pyrrolo[2,1-f][1,2,4]triazin-4-yl]phenyl]methyl]-1,2,4-oxadiazole-3-carboxamide] gave a DC50 of under 100 nM.
The value for `Cc1cc(-c2ncnn3cc(N4CCN(C(=O)CCCC5CN(C(=O)c6ccc(OC7CCC(=O)NC7=O)cc6)C5)CC4)cc23)ccc1CNC(=O)c1noc(C(C)(C)C)n1` (stereo not drawn) [Example 184, 5-(tert-butyl)-N-(4-(6-(4-(4-(1-(4-((2,6-dioxopiperidin-3-yl)oxy)benzoyl)azetidin-3-yl)butanoyl)piperazin-1-yl)pyrrolo[2,1-f][1,2,4]triazin-4-yl)-2-methylbenzyl)-1,2,4-oxadiazole-3-carboxamide] was under 100 nM; that for `Cc1cc(-c2ncnn3cc(CCN4CCN(c5ccc(NC6CCC(=O)NC6=O)cn5)CC4)cc23)ccc1CNC(=O)c1noc(C(C)(C)C)n1` (stereo not drawn) [Example 260, 5-(tert-butyl)-N-(4-(6-(2-(4-(5-((2,6-dioxopiperidin-3-yl)amino)pyridin-2-yl)piperazin-1-yl)ethyl)pyrrolo[2,1-f][1,2,4]triazin-4-yl)-2-methylbenzyl)-1,2,4-oxadiazole-3-carboxamide] was under 100 nM; that for `Cc1cc(-c2ncnn3cc(CCCCN4CC(c5ccc(NC6CCC(=O)NC6=O)cc5)C4)cc23)ccc1CNC(=O)c1noc(C(C)(C)C)n1` (stereo not drawn) [Example 148, 5-tert-butyl-N-[[4-[6-[4-[3-[4-[(2,6-dioxo-3-piperidyl)amino]phenyl]azetidin-1-yl]butyl]pyrrolo[2,1-f][1,2,4]triazin-4-yl]-2-methyl-phenyl]methyl]-1,2,4-oxadiazole-3-carboxamide] was 100 to 500 nM.
As for `O=C1CCC(Nc2ccc(C3CCN(Cc4ccc(-c5cc6c(-c7ccc(CNC(=O)c8ccc(C(F)F)cc8)c(F)c7)ncnn6c5)cc4)CC3)nc2)C(=O)N1` (stereo not drawn) [Example 102, 4-(difluoromethyl)-N-[[4-[6-[4-[[4-[5-[(2,6-dioxo-3-piperidyl)amino]-2-pyridyl]-1-piperidyl]methyl]phenyl]pyrrolo[2,1-f][1,2,4]triazin-4-yl]-2-fluoro-phenyl]methyl]benzamide], the figure is under 100 nM.

The record behind these values is patent publication US20240287076A1, “COMPOUNDS FOR TARGETING DEGRADATION OF BRUTON'S TYROSINE KINASE” (BIOGEN MA INC., priority 2021, published 2024).
